Assay [1] has as its target PIK3CA (human) (UniProt P42336). Nature of the assay: Assessment of PIK3CA Kinase Activity.
For assay [2], the target named is PIK3CB (Human) (UniProt P42338). Nature of the assay: Assessment of PIK3CB Kinase Activity.

Each structure is given as a SMILES string.

Sequence of PIK3CB (Human) (P42338 whole entry, looked up): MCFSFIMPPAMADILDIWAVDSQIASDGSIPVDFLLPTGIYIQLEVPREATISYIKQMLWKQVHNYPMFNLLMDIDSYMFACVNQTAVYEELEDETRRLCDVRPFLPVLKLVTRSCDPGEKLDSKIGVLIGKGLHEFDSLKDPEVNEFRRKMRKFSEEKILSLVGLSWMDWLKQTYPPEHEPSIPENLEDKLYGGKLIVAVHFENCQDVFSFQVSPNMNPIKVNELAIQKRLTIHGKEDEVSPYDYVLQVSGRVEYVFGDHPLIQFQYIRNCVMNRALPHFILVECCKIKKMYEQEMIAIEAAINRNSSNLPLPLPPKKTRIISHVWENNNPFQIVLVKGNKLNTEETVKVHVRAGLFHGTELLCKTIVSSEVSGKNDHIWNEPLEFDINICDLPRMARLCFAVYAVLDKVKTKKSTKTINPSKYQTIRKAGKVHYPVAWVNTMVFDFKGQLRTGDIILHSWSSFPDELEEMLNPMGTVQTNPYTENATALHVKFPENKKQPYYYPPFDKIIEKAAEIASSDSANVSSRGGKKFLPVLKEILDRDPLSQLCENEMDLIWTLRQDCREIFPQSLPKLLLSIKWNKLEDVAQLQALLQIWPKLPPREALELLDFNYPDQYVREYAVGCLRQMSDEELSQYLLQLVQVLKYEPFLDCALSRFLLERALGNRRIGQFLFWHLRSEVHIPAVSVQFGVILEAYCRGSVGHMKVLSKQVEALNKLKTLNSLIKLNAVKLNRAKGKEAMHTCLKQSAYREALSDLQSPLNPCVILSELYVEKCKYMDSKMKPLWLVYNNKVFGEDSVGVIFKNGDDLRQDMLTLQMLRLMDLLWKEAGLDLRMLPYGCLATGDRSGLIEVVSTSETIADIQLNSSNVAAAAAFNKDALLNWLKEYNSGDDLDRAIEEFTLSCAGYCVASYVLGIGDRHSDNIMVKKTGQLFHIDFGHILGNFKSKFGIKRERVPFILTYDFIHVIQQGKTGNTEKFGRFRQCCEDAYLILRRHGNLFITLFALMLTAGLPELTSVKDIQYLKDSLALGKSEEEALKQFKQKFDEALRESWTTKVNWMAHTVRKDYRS
Sequence of PIK3CA (human) (P42336 whole entry, looked up): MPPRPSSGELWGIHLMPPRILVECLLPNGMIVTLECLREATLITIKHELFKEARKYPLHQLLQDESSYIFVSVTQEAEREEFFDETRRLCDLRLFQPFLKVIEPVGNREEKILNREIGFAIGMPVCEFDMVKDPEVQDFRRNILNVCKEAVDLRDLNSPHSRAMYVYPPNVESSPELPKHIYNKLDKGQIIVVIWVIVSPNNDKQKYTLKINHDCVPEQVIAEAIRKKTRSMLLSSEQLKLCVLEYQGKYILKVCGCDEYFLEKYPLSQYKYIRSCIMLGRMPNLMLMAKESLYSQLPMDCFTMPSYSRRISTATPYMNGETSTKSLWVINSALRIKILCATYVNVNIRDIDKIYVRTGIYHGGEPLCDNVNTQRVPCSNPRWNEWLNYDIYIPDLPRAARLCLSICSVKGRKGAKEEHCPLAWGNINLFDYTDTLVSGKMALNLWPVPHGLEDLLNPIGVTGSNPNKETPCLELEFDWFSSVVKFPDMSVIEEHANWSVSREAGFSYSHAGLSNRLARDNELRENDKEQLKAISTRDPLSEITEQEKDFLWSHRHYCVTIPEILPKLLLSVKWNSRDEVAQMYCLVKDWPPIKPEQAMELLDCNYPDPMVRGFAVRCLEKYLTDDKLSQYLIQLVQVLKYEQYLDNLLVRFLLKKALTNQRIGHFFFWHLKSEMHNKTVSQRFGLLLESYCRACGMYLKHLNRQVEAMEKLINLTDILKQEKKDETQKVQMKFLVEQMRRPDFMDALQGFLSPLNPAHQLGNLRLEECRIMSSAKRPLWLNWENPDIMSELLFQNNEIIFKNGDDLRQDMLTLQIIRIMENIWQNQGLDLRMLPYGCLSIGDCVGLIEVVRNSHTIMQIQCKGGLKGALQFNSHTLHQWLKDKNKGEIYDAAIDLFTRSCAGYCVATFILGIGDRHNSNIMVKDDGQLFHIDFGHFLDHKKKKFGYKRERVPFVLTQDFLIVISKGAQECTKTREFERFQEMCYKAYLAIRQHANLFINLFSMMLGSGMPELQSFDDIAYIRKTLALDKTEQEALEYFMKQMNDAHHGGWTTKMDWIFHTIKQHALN

For `COc1c(OCCCC2CN(CC3CCC3)CCO2)ccc2c1N=C(NC(=O)c1cccnc1)N1CCN=C21` (centres undefined), the IC50 in assay [1] and in assay [2] was below 10 nM each time.

As for `COc1c(OCCCN2CCOCC2)ccc2c1N=C(NC(=O)c1ccc(NC(=O)NC(C)C)nc1)N1CCN=C21`, the concentration for half-maximal inhibition (IC50) in assay [1] and in assay [2] was below 10 nM in each case.

On to `CCCc1nc(N)ncc1C(=O)NC1=Nc2c(ccc(OCCCN3CCOCC3)c2OC)C2=NCCN12`, for which the IC50 in assay [1] and in assay [2] was below 10 nM each time.

`COCCNc1ncc(C(=O)NC2=Nc3c(ccc(OCCCN4CCOCC4)c3OC)C3=NCCN23)cn1`: the IC50 in assay [1] and in assay [2] was below 10 nM in each case.

Consider `COc1c(OCCCN2CCOCC2)ccc2c1N=C(NC(=O)c1cnc(NCCO)nc1)N1CCN=C21`, for which the 50% inhibitory concentration (IC50) in assay [1] and in assay [2] was below 10 nM each time.

`COc1c(OCC(CO)CN2CCOCC2)ccc2c1N=C(NC(=O)c1cccnc1)N1CCN=C21` (centres undefined): the IC50 in assay [1] and in assay [2] was below 10 nM in each case.

`COc1c(OCCCN2CCOCC2)ccc2c1N=C(NC(=O)c1sc(N)nc1C)N1CCN=C21`: the half-maximal inhibitory concentration (IC50) in assay [1] and in assay [2] was below 10 nM throughout.

`CCN(CC)CCCOc1ccc2c(c1OC)N=C(NC(=O)c1cccnc1)N1CCN=C21`: the IC50 in assay [1] and in assay [2] was below 10 nM throughout.

With `COc1c(OCCCN)ccc2c1N=C(NC(=O)c1cccnc1)N1CCN=C21`, the concentration for half-maximal inhibition (IC50) in assay [1] and in assay [2] was below 10 nM in each case.

Consider `COc1c(OCCCN2CCOCC2)ccc2c1N=C(NC(=O)c1cnc(N)c(Br)c1)N1CCN=C21`, for which the IC50 in assay [1] and in assay [2] was below 10 nM in each case.

With `COc1c(OCCCN2CCOCC2)ccc2c1N=C(NC(=O)c1ccc(N3CC[C@@H](N)C3)nc1)N1CCN=C21`, the concentration for half-maximal inhibition (IC50) in assay [1] and in assay [2] was below 10 nM each time.

With `COc1c(OCCCN2CCOC(CO)C2)ccc2c1N=C(NC(=O)c1cccnc1)N1CCN=C21` (centres undefined), the IC50 in assay [1] and in assay [2] was below 10 nM throughout.

For `COc1c(OCCCN2CCOCC2)ccc2c1N=C(NC(=O)c1ccc(N)nc1)N1CCN=C21`, the 50% inhibitory concentration (IC50) in assay [1] and in assay [2] was below 10 nM throughout.

Consider `COc1c(OCCCN2CCOCC2)ccc2c1N=C(NC(=O)c1ccc(F)nc1)N1CCN=C21`, for which the IC50 in assay [1] and in assay [2] was below 10 nM throughout.

With `COc1c(OCCCN2CCOCC2)ccc2c1N=C(NC(=O)c1ccc(N)nc1C)N1CCN=C21`, the IC50 in assay [1] and in assay [2] was below 10 nM each time.

On to `COc1c(OCCCN2CCOCC2)ccc2c1N=C(NC(=O)c1ccc(N3CC[C@H](N)C3)nc1)N1CCN=C21`, for which the IC50 in assay [1] and in assay [2] was below 10 nM each time.

Regarding `COc1c(OCCCN2CCOCC2)ccc2c1N=C(NC(=O)c1cnc(NCCN(C)C)nc1)N1CCN=C21`, the IC50 in assay [1] and in assay [2] was below 10 nM in each case.

Regarding `COc1c(OCCCN2CCCCC2)ccc2c1N=C(NC(=O)c1cccnc1)N1CCN=C21`, the IC50 in assay [1] and in assay [2] was below 10 nM throughout.

Consider `COc1c(OCCCN2C[C@@H](C)O[C@@H](C)C2)ccc2c1N=C(NC(=O)c1ccc(N)nc1)N1CCN=C21`, for which the IC50 in assay [1] and in assay [2] was below 10 nM in each case.

As to `COc1c(OCCCN(C)C)ccc2c1N=C(NC(=O)c1cnc(NCCN(C)C)nc1)N1CCN=C21`, the IC50 in assay [1] and in assay [2] was below 10 nM each time.

Take `COc1c(OCCCN(C)C)ccc2c1N=C(NC(=O)c1ccc(N)nc1)N1CCN=C21`: the IC50 in assay [1] and in assay [2] was below 10 nM in each case.

`COc1c(OCCCN2CCOCC2)ccc2c1N=C(NC(=O)c1cccnc1)N1CCN=C21`: the IC50 in assay [1] and in assay [2] was below 10 nM throughout.

On to `COc1c(OCC2CN(C)CCO2)ccc2c1N=C(NC(=O)c1cccnc1)N1CCN=C21` (centres undefined), for which the IC50 in assay [1] and in assay [2] was below 10 nM in each case.

Regarding `COc1c(OCCCN2CCOCC2)ccc2c1N=C(NC(=O)c1cnc(N)o1)N1CCN=C21`, the IC50 in assay [1] and in assay [2] was below 10 nM throughout.

For `COc1c(OCCCN2CCOCC2)ccc2c1N=C(NC(=O)c1sc(C)nc1C)N1CCN=C21`, the IC50 in assay [1] and in assay [2] was below 10 nM each time.

As to `COc1c(OCCCN2CCOCC2)ccc2c1N=C(NC(=O)c1cnc(N)nc1C)N1CCN=C21`, the IC50 in assay [1] and in assay [2] was below 10 nM each time.

Take `COc1c(OCCCN2C[C@@H](C)O[C@@H](C)C2)ccc2c1N=C(NC(=O)c1cccnc1)N1CCN=C21`: the 50% inhibitory concentration (IC50) in assay [1] and in assay [2] was below 10 nM throughout.

With `CNCCCOc1ccc2c(c1OC)N=C(NC(=O)c1cccnc1)N1CCN=C21`, the IC50 in assay [1] and in assay [2] was below 10 nM in each case.

`COc1c(OCCN2CCCC2)ccc2c1N=C(NC(=O)c1cccnc1)N1CCN=C21`: the half-maximal inhibitory concentration (IC50) in assay [1] and in assay [2] was below 10 nM each time.

On to `CCN1CCOC(CCOc2ccc3c(c2OC)N=C(NC(=O)c2cccnc2)N2CCN=C32)C1` (centres undefined), for which the IC50 in assay [1] and in assay [2] was below 10 nM in each case.

Regarding `COc1c(OCCCN2CCOCC2)ccc2c1N=C(NC(=O)c1ccc(C)nc1)N1CCN=C21`, the 50% inhibitory concentration (IC50) in assay [1] and in assay [2] was below 10 nM throughout.

With `COc1c(OCCCN2C[C@@H](C)O[C@@H](C)C2)ccc2c1N=C(NC(=O)c1cncnc1)N1CCN=C21`, the IC50 in assay [1] and in assay [2] was below 10 nM throughout.

Turning to `COCCN1CCOC(CCCOc2ccc3c(c2OC)N=C(NC(=O)c2cccnc2)N2CCN=C32)C1` (centres undefined), the IC50 in assay [1] and in assay [2] was below 10 nM throughout.

For the compound `COc1c(OCCN(C)C)ccc2c1N=C(NC(=O)c1cccnc1)N1CCN=C21`, the IC50 in assay [1] and in assay [2] was below 10 nM each time.

On to `COc1c(OCCCN2C[C@@H](C)O[C@@H](C)C2)ccc2c1N=C(NC(=O)c1sc(C)nc1C)N1CCN=C21`, for which the IC50 in assay [1] and in assay [2] was below 10 nM throughout.

Regarding `CCN(CC)CCOc1ccc2c(c1OC)N=C(NC(=O)c1cccnc1)N1CCN=C21`, the IC50 in assay [1] and in assay [2] was below 10 nM throughout.

In the case of `COc1c(OCCCN(C)C)ccc2c1N=C(NC(=O)c1cnc(N)s1)N1CCN=C21`, the half-maximal inhibitory concentration (IC50) in assay [1] and in assay [2] was below 10 nM throughout.

On to `COc1c(OCCCN2CCOCC2)ccc2c1N=C(NC(=O)c1cncn1C)N1CCN=C21`, for which the IC50 in assay [1] and in assay [2] was below 10 nM in each case.

On to `COc1cncc(C(=O)NC2=Nc3c(ccc(OCCCN4CCOCC4)c3OC)C3=NCCN23)c1`, for which the IC50 in assay [1] and in assay [2] was below 10 nM each time.

Take `COc1c(OCC2CNCCO2)ccc2c1N=C(NC(=O)c1cccnc1)N1CCN=C21` (centres undefined): the half-maximal inhibitory concentration (IC50) in assay [1] and in assay [2] was below 10 nM each time.

Turning to `CNC(=O)Nc1ccc(C(=O)NC2=Nc3c(ccc(OCCCN4CCOCC4)c3OC)C3=NCCN23)cn1`, the IC50 in assay [1] and in assay [2] was below 10 nM in each case.

For the compound `COc1c(OCCCN(C)C)ccc2c1N=C(NC(=O)c1cccnc1)N1CCN=C21`, the half-maximal inhibitory concentration (IC50) in assay [1] and in assay [2] was below 10 nM throughout.

For `COc1c(OCCCN2CCOCC2)ccc2c1N=C(NC(=O)c1ccnc(N)c1)N1CCN=C21`, the IC50 in assay [1] and in assay [2] was below 10 nM each time.

For the compound `COc1c(OCCN2CCCCC2)ccc2c1N=C(NC(=O)c1cccnc1)N1CCN=C21`, the IC50 in assay [1] and in assay [2] was below 10 nM throughout.

Take `COc1c(OCCCN2CCOCC2)ccc2c1N=C(NC(=O)c1ccc(NC(=O)C(C)C)nc1)N1CCN=C21`: the IC50 in assay [1] and in assay [2] was below 10 nM each time.

`COc1c(OCCCN2C[C@@H](C)O[C@@H](C)C2)ccc2c1N=C(NC(=O)c1ccc(NC(C)=O)nc1)N1CCN=C21`: the IC50 in assay [1] and in assay [2] was below 10 nM each time.

Consider `COc1c(OCCCN2C[C@@H](C)O[C@@H](C)C2)ccc2c1N=C(NC(=O)c1cnc(N)nc1)N1CCN=C21`, for which the IC50 in assay [1] and in assay [2] was below 10 nM each time.

Consider `COc1c(OCCCN2CCOCC2)ccc2c1N=C(NC(=O)c1ccc(NC(=O)C3CC3)nc1)N1CCN=C21`, for which the IC50 in assay [1] and in assay [2] was below 10 nM in each case.

For the compound `COc1c(OCCCN2C[C@@H](C)O[C@@H](C)C2)ccc2c1N=C(NC(=O)c1ccc(C)nc1)N1CCN=C21`, the IC50 in assay [1] and in assay [2] was below 10 nM throughout.

As to `COc1c(OCCCN2CCOCC2)ccc2c1N=C(NC(=O)c1ccc(N(C)C)nc1)N1CCN=C21`, the 50% inhibitory concentration (IC50) in assay [1] and in assay [2] was below 10 nM throughout.

`COc1c(OCCCN(C)C)ccc2c1N=C(NC(=O)c1ccc[n+]([O-])c1)N1CCN=C21`: the IC50 – broadly, the concentration that gives 50% inhibition – in assay [1] was below 10 nM.

Take `COc1c(OCCN(C)C)ccc2c1N=C(NC(=O)c1cncnc1)N1CCN=C21`: the half-maximal inhibitory concentration (IC50) in assay [1] and in assay [2] was below 10 nM in each case.

`COc1c(OCCCN2CCOCC2)ccc2c1N=C(NC(=O)c1cncnc1)N1CCN=C21`: the IC50 in assay [1] and in assay [2] was below 10 nM throughout.

As for `COCCNc1ccc(C(=O)NC2=Nc3c(ccc(OCCCN4CCOCC4)c3OC)C3=NCCN23)cn1`, the half-maximal inhibitory concentration (IC50) in assay [1] and in assay [2] was below 10 nM throughout.

On to `COc1c(OCCCN2CCOCC2)ccc2c1N=C(NC(=O)c1ccc(NCc3ccco3)nc1)N1CCN=C21`, for which the half-maximal inhibitory concentration (IC50) in assay [1] and in assay [2] was below 10 nM throughout.

As to `COc1c(OCCN(C)C)ccc2c1N=C(NC(=O)c1sc(C)nc1C)N1CCN=C21`, the 50% inhibitory concentration (IC50) in assay [1] and in assay [2] was below 10 nM each time.

For the compound `COc1c(OCCN2CCOCC2)ccc2c1N=C(NC(=O)c1cccnc1)N1CCN=C21`, the IC50 in assay [1] and in assay [2] was below 10 nM throughout.

Turning to `COc1c(OCCCN(C)C)ccc2c1N=C(NC(=O)c1cnc(N)nc1)N1CCN=C21`, the IC50 in assay [1] and in assay [2] was below 10 nM each time.

For the compound `COCCN1CCOC(COc2ccc3c(c2OC)N=C(NC(=O)c2cccnc2)N2CCN=C32)C1` (centres undefined), the IC50 in assay [1] and in assay [2] was below 10 nM each time.

On to `COc1c(OCCCN2CCOCC2)ccc2c1N=C(NC(=O)c1cnc(N)s1)N1CCN=C21`, for which the 50% inhibitory concentration (IC50) in assay [1] and in assay [2] was below 10 nM throughout.

Source of the values: the Kinase Knowledgebase extract (Sharma et al. 2016).
